In ChEMBL document CHEMBL4334456, “Moscatilin Ameliorates Tau Phosphorylation and Cognitive Deficits in Alzheimer's Disease Models” (J Nat Prod, 2019):
Active and inactive are the calls of the source. The calls are words filed in the database; no cut-off is given here.

Tests used:
[1] = target: Glycogen synthase kinase-3 beta (Homo sapiens) (UniProt P49841); assay: Inhibition of GSK-3beta in human SH-SY5Y cells harboring with pCAX/FLAG-tagged APP and pRK5/EGFP-tagged Tau P301L mutant assessed as reduction in tau phosphorylation at S404 residues after 12 to 24 hrs by Western blot analysis; format: cell-based
[2] = tested on: Mus musculus; assay: Anti-alzhemeric activity in scopolamine-induced ICR mouse assessed as increase in swimming speed at 25 to 100 mg/kg, ip for 2 weeks followed by scopolamine treatment and measured after 90 mins by Morris water maze test; format: functional, organism-based
[3] = target: Glycogen synthase kinase-3 beta (Homo sapiens) (UniProt P49841); assay: Inhibition of GSK-3beta in human SH-SY5Y cells assessed as increase in GSK-3beta phosphorylation at Ser9 residues at 0.1 to 5 uM pretreated for 24 hrs followed by OA addition and measured after 6 hrs by Western blot analysis; format: cell-based
[4] = tested on: Mus musculus; assay: Anti-alzhemeric activity in scopolamine-induced ICR mouse assessed as increase in time spent in the target quadrant at 25 to 100 mg/kg, ip for 2 weeks followed by scopolamine treatment and measured after 90 mins by Morris water maze test; format: functional, organism-based
[5] = target: Glycogen synthase kinase-3 beta (Homo sapiens) (UniProt P49841); assay: Inhibition of GSK-3beta in human SH-SY5Y cells harboring with pCAX/FLAG-tagged APP and pRK5/EGFP-tagged Tau P301L mutant assessed as reduction in tau phosphorylation at S396 residues after 12 to 24 hrs by Western blot analysis; format: cell-based
[6] = tested on: Mus musculus; assay: Reversal of scopolamine-induced spatial memory impairment in ICR mouse assessed as decrease in time spent on […] at 25 to 100 mg/kg, ip for 2 weeks followed by scopolamine treatment and measured after 90 mins by Morris water maze test; format: functional, organism-based
[7] = tested on: N2a; assay: Cytotoxicity against mouse Neuro2a cells assessed as reduction in cell viability after 12 hrs by MTT assay; format: cell-based
[8] = target: Glycogen synthase kinase-3 beta (Mus musculus) (UniProt Q9WV60); assay: Inhibition of GSK3beta in mouse Neuro2a cells assessed as reduction in tau phosphorylation at S262 residues at 0.1 to 5 uM pretreated for 12 to 24 hrs followed by OA addition and measured after 6 hrs by Western blot analysis; format: cell-based
[9] = tested on: SH-SY5Y; assay: Effect on cell cycle arrest in OA-induced human SH-SY5Y cells assessed as accumulation at sub-G1 phase at 0.1 uM pretreated for 6 hrs followed by OA addition and measured after 16 hrs […] (reference value: 32.28%); format: functional
[10] = tested on: Mus musculus; assay: Anti-alzhemeric activity in scopolamine-induced ICR mouse assessed as inhibition of tau phosphorylation at Ser262 residues in brain at 25 to 100 mg/kg, ip for 2 weeks followed by scopolamine treatment by Western blot analysis; format: functional, organism-based
[11] = tested on: Mus musculus; assay: Anti-alzhemeric activity in scopolamine-induced ICR mouse assessed as reduction in tau phosphorylation at S202/T205 residues in hippocampal CA1 region at 25 to 100 mg/kg, ip for 2 weeks followed by scopolamine treatment by immunohistochemistry-based analysis; format: functional, organism-based
[12] = tested on: Mus musculus; assay: Anti-alzhemeric activity in scopolamine-induced ICR mouse assessed as increase in GSK-3beta phosphorylation Ser9 residues in hippocampal CA1 region at 25 to 100 mg/kg, ip for 2 weeks followed by scopolamine treatment by immunohistochemistry-based analysis; format: functional, organism-based
[13] = target: c-Jun N-terminal kinase, JNK (Homo sapiens) (UniProt P45983+P53779+P45984); assay: Inhibition of JNK phosphorylation in OA-induced human SH-SY5Y cells pretreated for 24 hrs followed by OA addition and measured after 6 hrs by Western blot analysis; format: cell-based
[14] = tested on: SH-SY5Y; assay: Inhibition of tau aggregation in OA-induced human SH-SY5Y cells at 0.1 to 5 uM pretreated for 24 hrs followed by OA addition and measured after 6 hrs by Western blot analysis; format: functional, cell-based
[15] = target: Glycogen synthase kinase-3 beta (Mus musculus) (UniProt Q9WV60); assay: Inhibition of GSK-3beta in mouse Neuro2a cells harboring with pCAX/FLAG-tagged APP and pRK5/EGFP-tagged Tau P301L mutant at 0.1 to 10 uM assessed as increase in GSK-3beta phosphorylation at Ser9 residues after 24 hrs by Western blot analysis; format: cell-based
[16] = target: Glycogen synthase kinase-3 beta (Homo sapiens) (UniProt P49841); assay: Inhibition of GSK-3beta in human SH-SY5Y cells harboring with pCAX/FLAG-tagged APP and pRK5/EGFP-tagged Tau P301L mutant at 0.1 to 10 uM assessed as reduction in GSK-3beta phosphorylation at Tyr216 residues after 24 hrs by Western blot analysis; format: cell-based
[17] = target: Glycogen synthase kinase-3 beta (Mus musculus) (UniProt Q9WV60); assay: Inhibition of GSK-3beta in mouse Neuro2a cells harboring with pCAX/FLAG-tagged APP and pRK5/EGFP-tagged Tau P301L mutant at 0.1 to 10 uM assessed as reduction in GSK-3beta phosphorylation at Tyr216 residues after 24 hrs by Western blot analysis; format: cell-based
[18] = tested on: SH-SY5Y; assay: Effect on total tau protein level in human SH-SY5Y cells at 0.1 to 5 uM pretreated for 12 to 24 hrs followed by OA addition and measured after 6 hrs by Western blot analysis; format: ADME, cell-based
[19] = target: Glycogen synthase kinase-3 beta (Mus musculus) (UniProt Q9WV60); assay: Inhibition of GSK-3beta in mouse Neuro2a cells harboring with pCAX/FLAG-tagged APP and pRK5/EGFP-tagged Tau P301L mutant assessed as reduction in tau phosphorylation at S396 residues after 12 to 24 hrs by Western blot analysis; format: cell-based
[20] = tested on: N2a; assay: Effect on total tau protein level in mouse Neuro2a cells at 0.1 to 5 uM pretreated for 12 to 24 hrs followed by OA addition and measured after 6 hrs by Western blot analysis; format: cell-based
[21] = target: MAP kinase p38 (Homo sapiens) (UniProt O15264+Q15759+Q16539+P53778); assay: Inhibition of p38 phosphorylation in OA-induced human SH-SY5Y cells pretreated for 24 hrs followed by OA addition and measured after 6 hrs by Western blot analysis; format: cell-based
[22] = tested on: SH-SY5Y; assay: Effect on total tau protein level in human SH-SY5Y cells harboring with pCAX/FLAG-tagged APP and pRK5/EGFP-tagged Tau P301L mutant at 0.1 to 10 uM after 12 to 24 hrs by Western blot analysis; format: ADME, cell-based
[23] = Toxicity in ICR mouse assessed as effect on body weight at 25 to 100 mg/kg, ip for 2 weeks; format: organism-based; conditions: in vivo, 336 h
[24] = tested on: SH-SY5Y; assay: Cytotoxicity against human SH-SY5Y cells assessed as reduction in cell viability after 12 hrs by MTT assay; format: cell-based
[25] = Toxicity in ICR mouse assessed as effect on body weight at 1 mg/kg, ip for 2 weeks; format: organism-based; conditions: in vivo, 336 h
[26] = tested on: SH-SY5Y; assay: Antioxidant activity in OA-induced human SH-SY5Y cells assessed as decrease in GSH level at 0.1 to 1 uM pretreated for 12 hrs followed by OA addition and measured after 12 hrs; format: functional, cell-based
[27] = tested on: N2a; assay: Effect on total tau protein level in mouse Neuro2a cells harboring with pCAX/FLAG-tagged APP and pRK5/EGFP-tagged Tau P301L mutant at 0.1 to 10 uM after 12 to 24 hrs by Western blot analysis; format: ADME, cell-based
[28] = target: Glycogen synthase kinase-3 beta (Mus musculus) (UniProt Q9WV60); assay: Inhibition of GSK3beta in mouse Neuro2a cells assessed as reduction in tau phosphorylation at S202/T205 residues at 0.1 to 5 uM pretreated for 12 to 24 hrs followed by OA addition and measured after 6 hrs by Western blot analysis; format: cell-based
[29] = tested on: Mus musculus; assay: Anti-alzhemeric activity in scopolamine-induced ICR mouse assessed as increase in GSK-3beta phosphorylation Ser9 residues in brain at 25 to 100 mg/kg, ip for 2 weeks followed by scopolamine treatment by Western blot analysis; format: functional, organism-based
[30] = tested on: Mus musculus; assay: Anti-alzhemeric activity in scopolamine-induced ICR mouse assessed as inhibition of tau phosphorylation at Ser396 residues in brain at 25 to 100 mg/kg, ip for 2 weeks followed by scopolamine treatment by Western blot analysis; format: functional, organism-based
[31] = tested on: SH-SY5Y; assay: Cytotoxicity against human SH-SY5Y cells assessed as reduction in cell viability after 24 hrs by MTT assay; format: cell-based
[32] = tested on: Mus musculus; assay: Anti-alzhemeric activity in scopolamine-induced ICR mouse assessed as inhibition of tau phosphorylation at S202/T205 residues in brain at 25 to 100 mg/kg, ip for 2 weeks followed by scopolamine treatment by Western blot analysis; format: functional, organism-based
[33] = target: Glycogen synthase kinase-3 beta (Homo sapiens) (UniProt P49841); assay: Inhibition of GSK3beta in human SH-SY5Y cells assessed as reduction in tau phosphorylation at S262 residues at 0.1 to 5 uM pretreated for 12 to 24 hrs followed by OA addition and measured after 6 hrs by Western blot analysis; format: cell-based
[34] = tested on: SH-SY5Y; assay: Antioxidant activity in OA-induced human SH-SY5Y cells assessed as increase in MDA level at 0.1 to 1 uM pretreated for 12 hrs followed by OA addition and measured after 12 hrs; format: functional, cell-based
[35] = target: Glycogen synthase kinase-3 beta (Homo sapiens) (UniProt P49841); assay: Inhibition of GSK-3beta in human SH-SY5Y cells assessed as reduction in GSK-3beta phosphorylation at Tyr216 residues at 0.1 to 5 uM pretreated for 24 hrs followed by OA addition and measured after 6 hrs by Western blot analysis; format: cell-based
[36] = tested on: SH-SY5Y; assay: Inhibition of ERK phosphorylation in OA-induced human SH-SY5Y cells pretreated for 24 hrs followed by OA addition and measured after 6 hrs by Western blot analysis; format: cell-based
[37] = tested on: Mus musculus; assay: Anti-alzhemeric activity in scopolamine-induced ICR mouse assessed as increase in swimming distance at 25 to 100 mg/kg, ip for 2 weeks followed by scopolamine treatment and measured after 90 mins by Morris water maze test; format: functional, organism-based
[38] = target: Glycogen synthase kinase-3 beta (Mus musculus) (UniProt Q9WV60); assay: Inhibition of GSK-3beta in mouse Neuro2a cells harboring with pCAX/FLAG-tagged APP and pRK5/EGFP-tagged Tau P301L mutant assessed as reduction in tau phosphorylation at S404 residues after 12 to 24 hrs by Western blot analysis; format: cell-based
[39] = target: Glycogen synthase kinase-3 beta (Homo sapiens) (UniProt P49841); assay: Inhibition of GSK3beta in human SH-SY5Y cells assessed as reduction in tau phosphorylation at S202/T205 residues at 0.1 to 5 uM pretreated for 12 to 24 hrs followed by OA addition and measured after 6 hrs by Western blot analysis; format: cell-based
[40] = tested on: N2a; assay: Cytotoxicity against mouse Neuro2a cells assessed as reduction in cell viability after 24 hrs by MTT assay; format: cell-based
[41] = target: Glycogen synthase kinase-3 beta (Homo sapiens) (UniProt P49841); assay: Inhibition of GSK-3beta in human SH-SY5Y cells harboring with pCAX/FLAG-tagged APP and pRK5/EGFP-tagged Tau P301L mutant at 0.1 to 10 uM assessed as increase in GSK-3beta phosphorylation at Ser9 residues after 24 hrs by Western blot analysis; format: cell-based

Glycogen synthase kinase-3 beta (Mus musculus), sequence (Q9WV60 whole entry, looked up): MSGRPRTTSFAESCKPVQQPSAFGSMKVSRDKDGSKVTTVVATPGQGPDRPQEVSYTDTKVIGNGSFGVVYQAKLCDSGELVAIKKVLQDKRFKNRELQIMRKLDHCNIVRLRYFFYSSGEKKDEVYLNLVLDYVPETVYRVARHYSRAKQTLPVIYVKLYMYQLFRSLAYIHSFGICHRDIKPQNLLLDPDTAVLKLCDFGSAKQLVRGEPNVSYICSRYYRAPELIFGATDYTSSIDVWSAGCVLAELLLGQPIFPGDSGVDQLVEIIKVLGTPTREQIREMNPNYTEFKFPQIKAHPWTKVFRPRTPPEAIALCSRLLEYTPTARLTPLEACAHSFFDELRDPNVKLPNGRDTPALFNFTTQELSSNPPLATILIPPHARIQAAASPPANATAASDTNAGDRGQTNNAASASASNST
Glycogen synthase kinase-3 beta (Homo sapiens), sequence (P49841 whole entry, looked up): as the sequence (Q9WV60 whole entry, looked up) above, with P390T, A392T, T400A, A402T counted along it

inhibition [1]: Dose-dependent effect
inhibition [3]: Active
inhibition [5]: Dose-dependent effect
inhibition [8]: Active
inhibition [13]: Dose-dependent effect
inhibition [15]: Active
inhibition [16]: Active
inhibition [17]: Active
inhibition [19]: Dose-dependent effect
inhibition [21]: Dose-dependent effect
inhibition [28]: Active
inhibition [33]: Active
inhibition [35]: Active
inhibition [38]: Dose-dependent effect
inhibition [39]: Active
inhibition [41]: Active
Structure (SMILES): COc1cc(CCc2cc(OC)c(O)c(OC)c2)ccc1O [MOSCATILIN]
Activity [2]: inactive
Activity [4]: Active
Activity [6]: Active
IC50 [7]: > 20 µM
Activity [9]: 20.81%
Activity [10]: Active
Activity [11]: Active
Activity [12]: Active
inhibition [14]: Active
Activity [18]: Non-Toxic
Activity [20]: Non-Toxic
Activity [22]: Non-Toxic
Activity [23]: Non-Toxic
IC50 [24]: > 20 µM
Activity [25]: Non-Toxic
Activity [26]: Active
Activity [27]: Non-Toxic
Activity [29]: Active
Activity [30]: Active
IC50 [31]: > 20 µM
Activity [32]: Active
Activity [34]: Active
inhibition [36]: Dose-dependent effect
Activity [37]: Active
IC50 [40]: > 20 µM
